Test results reported in patent publication US20250205184A1, “COLD COMPRESS SPRAY FOR RELIEVING GOUT AND PREPARATION METHOD THEREOF” (priority 2023, published 2025).

Test system: ankle joint swelling of rats caused by sodium urate crystals
Experiment: Acute plantar/ankle joint swelling of rat caused by sodium urate crystals
Format: in vivo
Settings: X ± SD, n = 9
Protocol: A process of preparing sodium urate crystallization and a sodium urate solution is as follows: 2 g of uric acid are added into 400 mL of boiling water to obtain an uric acid solution; a pH value of the uric acid solution is adjusted to 7.4 by using NaOH (1N) to obtain an adjusted solution; the adjusted solution is heated to a temperature of 95° C. to obtain a heated solution; then the heated solution is cooled and stirred gently at a room temperature to obtain a cooled solution; the cooled solution is allowed to stand for 4-6 hours at 4° C. to precipitate flocculent precipitates; microcrystalline sodium urate is obtained by filtering, and the microcrystalline sodium urate is sterilized at a high temperature of 80° C. 1000 milligrams (mg) of the sodium urate are ground fully to obtain sodium urate powder, and the sodium urate powder is added into 20 mL of sterile physiological saline to prepare a suspension with a concentration of 50 g/L (5%).
A process of grouping and administration is as follows: rats are adaptively fed for 3 days and randomly divided into 7 groups based on body weights. The 7 groups include a model control group, a positive drug indomethacin group, a first group, a second group, and a third group, a first comparison group, and a second comparison group. One hour before inflammation, the positive drug indomethacin group is administered with indomethacin through gavage (10 mL/kg). The first group is immediately administered with the cold compress spray (0.1 mL for each rat) obtained in the embodiment 1 after modeling; the second group is immediately administered with the cold compress spray (0.1 mL for each rat) obtained in the embodiment 2 after modeling; the third group is immediately administered with the cold compress spray (0.1 mL for each rat) obtained in the embodiment 3 after modeling; the first comparison group is immediately administered with the cold compress spray (0.1 mL for each rat) obtained in the comparative embodiment 1 after modeling; the second comparison group is immediately administered with the cold compress spray (0.1 mL for each rat) obtained in the comparative embodiment 2 after modeling; and the model control group is immediately administered with an excipient (0.1 mL for each rat) after modeling. Furthermore, after inflammation, the first group, the second group, the third group, the first comparison group, and the second comparison group are administered with corresponding cold compress sprays again after measurements of joint swelling at 6, 12, and 24 hours.
A process of modeling is as follows: an area around an ankle joint of a right hind limb of each rat is marked with a marker pen, and a joint circumference is measured as a normal value using a plantar volume meter. 0.2 mL of 5% sodium urate suspension are injected (the joint of each rat is extended and a needle is inserted at 45 degrees) into a joint cavity on a dorsal side of the right ankle joint of each rat of each group. Here, the modeling of each group is completed.
Results of joint swelling are as follows: a volume of the right ankle joint of each rat at 6, 12, 24, and 48 hours after inflammation is measured.

Question: `COc1ccc2c(c1)c(CC(=O)O)c(C)n2C(=O)c1ccc(Cl)cc1` [Indomethacin, indomethacin] was tested. Which “Volume of after modeling, 6 h” value (right ankle joint volume 6 h after inflammation) did it give?
Answer: The value was 2.42 ± 0.15 mL.

Question: What about the “Volume of after modeling, 12 h” value (right ankle joint volume 12 h after inflammation) of the same compound?
Answer: Its value is 2.29 ± 0.30 mL.

Question: What about the “Volume of after modeling, 24 h” value (right ankle joint volume 24 h after inflammation) of the same compound?
Answer: Its value is 2.18 ± 0.09 mL.

Question: And the “Volume of after modeling, 48 h” value (right ankle joint volume 48 h after inflammation)?
Answer: The value was 2.16 ± 0.14 mL.

Question: What about the Volume before modeling (right ankle joint volume, baseline before sodium urate injection) of the same compound?
Answer: Its Volume before modeling is 2.12 ± 0.21 mL.
